Earlier results on four substances are cited in paper PMC3411352 (Biopolymers, 2011).

The target of data set [1] is T1, rat κ opioid receptors (Rattus norvegicus, UniProt P34975). Conditions: for Ki: read-out: Ki ± SEM κ, κ opioid receptors.
The target in data set [2] is T1, rat κ opioid receptors. Conditions: relative to Dyn A (1-13)NH2 (0% control).
Data set [3] concerns the target κ opioid receptors.
The next data set concerns the target rat μ opioid receptors (Rattus norvegicus, UniProt P33535). The settings on record: read-out: Ki ± SEM μ.
Data set [4] addresses κ opioid receptors. The settings on record: selectivity.

Several values for one entry are separate records, joined by “and”; a condition that tells them apart may be missing. Identical values can stand only once. Like-named read-outs stand apart in the source and are kept apart here.

T1 sequence (P34975 whole entry): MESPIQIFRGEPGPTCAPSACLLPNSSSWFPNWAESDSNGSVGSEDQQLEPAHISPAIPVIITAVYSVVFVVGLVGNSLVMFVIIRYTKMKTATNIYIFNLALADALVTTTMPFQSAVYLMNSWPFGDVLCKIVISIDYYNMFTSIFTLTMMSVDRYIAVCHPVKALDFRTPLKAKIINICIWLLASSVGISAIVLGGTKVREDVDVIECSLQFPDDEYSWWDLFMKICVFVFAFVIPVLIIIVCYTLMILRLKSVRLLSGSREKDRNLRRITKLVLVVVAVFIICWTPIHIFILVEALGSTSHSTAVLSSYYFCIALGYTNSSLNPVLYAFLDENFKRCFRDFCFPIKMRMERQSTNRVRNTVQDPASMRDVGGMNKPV
Sequence of rat μ opioid receptors (P33535 whole entry): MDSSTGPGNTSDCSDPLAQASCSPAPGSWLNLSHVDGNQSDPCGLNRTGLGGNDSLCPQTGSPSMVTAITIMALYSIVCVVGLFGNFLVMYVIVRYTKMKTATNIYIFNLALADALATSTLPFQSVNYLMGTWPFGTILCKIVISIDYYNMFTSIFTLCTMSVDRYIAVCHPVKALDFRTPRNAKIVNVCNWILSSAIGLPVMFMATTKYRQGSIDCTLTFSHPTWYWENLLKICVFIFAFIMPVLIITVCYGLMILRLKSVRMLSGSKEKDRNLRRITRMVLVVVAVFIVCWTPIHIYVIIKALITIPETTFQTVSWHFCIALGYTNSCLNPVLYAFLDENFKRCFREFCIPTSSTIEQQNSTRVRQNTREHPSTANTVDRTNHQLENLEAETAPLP

Consider “Ac[Phe^1,2,3,Arg^4,D-Ala^8]Dyn A(1-11)-NH2 [Compound 1]”, for which, at rat κ opioid receptors [1], the Ki (as a rule, the dissociation constant of the complex between target and ligand, obtained from inhibition or displacement) was 10 ± 3 nM. Further, the “AC % control @ 10 μM” value at rat κ opioid receptors [2] is 88 ± 8 % control.

In the case of [(2S)-Mdp^1]Dyn A-(1-11)NH2 [Dynantin], the Ki on κ opioid receptors [3] (read-out: Ki (κ)) is 0.82 nM. Also, at κ opioid receptors [3] (selectivity), the “Ki ratio (κ/μ/δ)” value is reported as 1/259/198.

In the case of [NMePhe^1]arodyn [Compound 2], the Ki at rat κ opioid receptors [1] was 4.6 nM and 4.56 nM; on rat μ opioid receptors it was 5060 ± 790 nM. Also, the “Ki ratio (μ/κ)” value on rat κ opioid receptors [1] (selectivity κ over μ) is recorded as 1100. In addition, at rat κ opioid receptors [2], the “AC % control @ 10 μM” value was 86 ± 1 % control.

As to [Pro^3]Dyn A-(1-11)NH2, the “Ki ratio (κ/μ/δ)” value at κ opioid receptors [4] is reported as 1/2110/3260.
